The values below are quoted from earlier work in US5032506A, “Color control system” (priority 1986, dated 1991).

One may read the Km as the concentration of substrate that gives half-maximal velocity.

The test system of this data set is diaphorase. To be noted: chromogen substrates of diaphorase; literature values (Gella et al. 1981); read-out: Km for the tetrazolium salts.

Turning to `O=[N+]([O-])c1ccc(-[n+]2nc(-c3ccccc3)nn2-c2ccc(I)cc2)cc1` [INT], the Km is 0.87 mM.

Take `COc1cc(-c2ccc(-n3nc(-c4ccccc4)n[n+]3-c3ccc([N+](=O)[O-])cc3)c(OC)c2)ccc1-n1nc(-c2ccccc2)n[n+]1-c1ccc([N+](=O)[O-])cc1` [NBT, nitro blue tetrazolium chloride]: the Km is 2 mM.
